Data as given in patent US7951819B2, “Imidazo[4, 5-B]pyridin-2-one and oxazolo[4, 5-B] pyridin-2-one compounds and analogs thereof as cancer therapeutic compounds” (Cancer Research Technology Limited, priority 2006, dated 2011).

Tests used:
V600E B-RAF = target: T1, V600E B-RAF (Homo sapiens, UniProt P15056, V600E); assay: BRAF V600E Kinase Assay; format: biochemical
T1 construct: MDRGSH6 (MDRGS-His6) (N); made in house; host or cells: SF9 insect cells (detergent soluble extract / lysate, not purified)
T1 sequence (P15056 whole entry V600E): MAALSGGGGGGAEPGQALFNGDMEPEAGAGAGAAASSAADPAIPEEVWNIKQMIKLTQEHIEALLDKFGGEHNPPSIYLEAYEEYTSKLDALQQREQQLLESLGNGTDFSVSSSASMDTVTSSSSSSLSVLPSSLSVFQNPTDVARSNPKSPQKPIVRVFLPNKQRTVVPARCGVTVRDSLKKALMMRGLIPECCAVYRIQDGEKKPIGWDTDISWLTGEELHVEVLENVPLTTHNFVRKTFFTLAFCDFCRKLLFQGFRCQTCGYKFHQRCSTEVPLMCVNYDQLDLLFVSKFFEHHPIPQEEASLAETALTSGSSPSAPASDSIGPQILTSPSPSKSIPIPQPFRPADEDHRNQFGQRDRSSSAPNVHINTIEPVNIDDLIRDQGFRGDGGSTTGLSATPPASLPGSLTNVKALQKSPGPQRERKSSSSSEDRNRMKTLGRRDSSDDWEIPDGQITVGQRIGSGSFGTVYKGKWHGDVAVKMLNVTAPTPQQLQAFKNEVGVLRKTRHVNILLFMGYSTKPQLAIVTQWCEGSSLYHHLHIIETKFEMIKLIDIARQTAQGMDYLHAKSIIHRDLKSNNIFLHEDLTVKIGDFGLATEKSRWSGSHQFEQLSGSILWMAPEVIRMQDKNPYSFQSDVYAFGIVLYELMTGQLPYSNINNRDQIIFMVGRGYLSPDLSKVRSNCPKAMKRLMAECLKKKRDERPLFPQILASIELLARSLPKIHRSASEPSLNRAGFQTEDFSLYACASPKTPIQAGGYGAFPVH
Description: B-raf kinase activity is measured using a 4-tiered cascade enzyme assay similar to that described by Marais R., et al., 1997, J. Biol. Chem., Vol. 272, pp. 4378-4383. B-Raf containing the V600E mutation (Davies, H., et al., 2002, Nature, Vol. 417, pp. 949-954) and an N-terminal MDRGSH6 tag is expressed in SF9 insect cells. Detergent soluble extracts from these cells are diluted 1:100 into an assay mixture containing GST-MEK-H6 (6.5 μg/ml) and GST-ERK-H6 (100 μg/ml) in a buffer containing 800 μM ATP and appropriate concentrations of inhibitor or diluent as control. The mixture is incubated for up to 10 minutes at 30° C. to activate the ERK in a B-Raf dependent manner within the cascade. […] The extent of activation of the GST-ERK is then determined by adding a portion of this quenched reaction mixture to a further reaction mixture containing MBP and 100 μM ATP/gamma [^32P]ATP. After 12 minutes' incubation at 30° C., the incorporation of [^32P] into the MBP substrate, as a measure of B-raf activity, is determined by precipitation with phosphoric acid and isolation by filtration on p81 phosphocellulose paper. […]
Alternatively, B-raf kinase activity is measured using a different 4-tiered cascade enzyme assay. […] The extent of activation of the GST-ERK is then determined by adding 0.033 μL (100 μM) HOT ^32Pα. […]
Compounds were assessed by a kinase assay performed according to the following protocol. […]

ppERK = assay: Phospho-ERK Cell-based Assay; conditions: cells incubated with test compound for 6 hours
Description: Compounds were assessed using cell-based assays which were performed according to the following protocol.
Plate out 16,000 cells/well in 99 μL medium in a 96-well plate.
2. Incubate the cells with test compound for 6 hours at 37° C.
5. Add 50 μL of 3 μg/mL primary antibody ppERK (Sigma M8159), diluted in 5% milk powder/TBS, to each well.
13. Read Europium Time Resolved Fluorescence in Victor2.
Note that Europium counts are normalised for protein levels by dividing counts by absorbance.

WM266.4 melanoma cells = assay: Cell proliferation (SRB) assay; format: cell-based; conditions: Homo sapiens, WM 266-4, 144 h, 6 days growth
Description: Cultures of WM266.4 melanoma cells are routinely cultured in DMEM/10% foetal bovine serum, at 37° C., in 5% CO2 water saturated atmosphere. Cultures are maintained in exponential growth phase by sub-culturing before having become confluent (3-5 day intervals). Single cell suspensions are prepared by harvesting an 80 cm^2 tissue culture flask with 5 mL commercial trypsin EDTA. After 5 minutes, the detached cells are mixed with 5 mL fully complemented culture medium and centrifugally pelleted (1000 rpm for 7 minutes). After aspirating the supernatant, the cell pellet is re-suspended in 10 mL fresh medium and the cells fully disaggregated by drawing the whole volume up/down 5 times through a 19-gauge needle. The concentration of the cells is determined using a haemocytometer (1/10 dilution). A suitable volume to give at least a 2-fold excess for the number of tests being conducted, typically 100-200 mL, is prepared by diluting the cell suspension to 10,000/mL, and 100 μL/well dispensed into 96 well plates using a programmable 8-channel peristaltic pump, giving 1000 cells/well, leaving column 12 blank. […] The absorbance at 540 nm in each well (being proportional to the number of cells present) is determined using a plate reader. After averaging the results in rows A-D and E-H, the blank value ([…]) is subtracted, and results expressed as percentage of the untreated value (row 11). […]

IC50 (V600E B-RAF): 15 nM | IC50 (ppERK): 10.7 µM | IC50 (WM266.4 melanoma cells): 4.2 µM
Structure (SMILES): O=C(Nc1cccc(Oc2ccnc3[nH]c(=O)[nH]c23)c1)Nc1ccc(Cl)c(C(F)(F)F)c1 [CJS 3678, 1-(4-Chloro-3-(trifluoromethyl)phenyl)-3-(3-(2-oxo-2,3-dihydro-1H-imidazo[4,5-b]pyridin-7-yloxy)phenyl)urea]
